{"source": "patent US20120083522A1", "about": "“MODULATION OF INFLAMMATORY RESPONSES BY FACTOR XI” (Isis Pharmaceuitcals, inc., priority 2009, published 2012)", "note": "In the oligonucleotide strings, read from the 5' end, every base follows the letter of its sugar. An asterisk marks phosphorothioate; unmarked linkages are phosphodiester. Other units and linkages are bracketed, terminal groups are in braces. A string of capitals states the bases alone. e = 2'-O-(2-methoxyethyl) (MOE); [5mC] = 5-methylcytosine; d = 2'-deoxy (DNA)", "data": [{"test_system": "human Factor XI mRNA", "experiment": "Antisense inhibition in HepG2 cells by microwalk gapmers, 75 nM, lipofectin (Example 3)", "type": "cell-based", "conditions": "HepG2 cells, 75 nM, oligonucleotides targeted to nucleobases 738 to 762 of SEQ ID NO: 1", "experimental": "(§1) These gapmers were designed by creating gapmers shifted slightly upstream and downstream (i.e. “microwalk”) of the original gapmers from Table 3. Gapmers were also created with various motifs, e.g. 5-10-5 MOE, 3-14-3 MOE, and 2-13-5 MOE. These gapmers were tested in vitro. Cultured HepG2 cells at a density of 10,000 cells per well were transfected using lipofectin reagent with 75 nM antisense oligonucleotide. After a treatment period of approximately 24 hours, RNA was isolated from the cells and Factor XI mRNA levels were measured by quantitative real-time PCR. Factor XI mRNA levels were adjusted according to total RNA content, as measured by RIBOGREEN®. Results are presented as percent inhibition of Factor XI, relative to untreated control cells.\n(§2) The chimeric antisense oligonucleotides in Table 4 were designed as 5-10-5 MOE, 3-14-3 MOE, and 2-13-5 MOE gapmers. The first listed gapmers in Table 4 are the original gapmers (see Table 3) from which the remaining gapmers were designed via microwalk and are designated by an asterisk. The 5-10-5 gapmers are 20 nucleotides in length, wherein the central gap segment is comprised of 10 2′-deoxynucleotides and is flanked on both sides (in the 5′ and 3′ directions) by wings comprising 5 nucleotides each. The 3-14-3 gapmers are 20 nucleotides in length, wherein the central gap segment is comprised of 14 2′-deoxynucleotides and is flanked on both sides (in the 5′ and 3′ directions) by wings comprising 3 nucleotides each. The 2-13-5 gapmers are 20 nucleotides in length, wherein the central gap segment is comprised of 13 2′-deoxynucleotides. The central gap is flanked on the 5′ end with a wing comprising 2 nucleotides and on the 3′ end with a wing comprising 5 nucleotides. For each of the motifs (5-10-5, 3-14-3, and 2-13-5), each nucleotide in the 5′ wing segment and each nucleotide in the 3′ wing segment has a 2′-MOE modification. The internucleoside linkages throughout each gapmer are phosphorothioate (P═S) linkages. All cytidine residues throughout each gapmer are 5-methylcytidines. “Target start site” indicates the 5′-most nucleotide to which the gapmer is targeted. “Target stop site” indicates the 3′-most nucleotide to which the gapmer is targeted. Each gapmer listed in Table 4 is targeted to SEQ ID NO: 1 (GENBANK Accession No. NM_000128.3).", "units": {"% inhibition of human Factor XI mRNA levels": "%"}, "values": [{"substance": "416975 (antisense e[5mC]*e[5mC]*dG*dT*dG*d[5mC]*dA*dT*d[5mC]*dT*dT*dT*d[5mC]*dT*dT*eG*eG*e[5mC]*eA*eT) [compound 416975]", "% inhibition of human Factor XI mRNA levels": 87}]}, {"test_system": "human Factor XI mRNA", "experiment": "Antisense inhibition in HepG2 cells by microwalk gapmers, 75 nM, lipofectin (Example 3)", "type": "cell-based", "conditions": "HepG2 cells, 75 nM, oligonucleotides targeted to nucleobases 1062 to 1091 of SEQ ID NO: 1", "experimental": "as §1, §2", "units": {"% inhibition of human Factor XI mRNA levels": "%"}, "values": [{"substance": "416839 (antisense eG*eA*eT*eT*e[5mC]*dT*dT*dT*dG*dG*dG*d[5mC]*d[5mC]*dA*dT*eT*e[5mC]*e[5mC]*eT*eG) [compound 416839]", "% inhibition of human Factor XI mRNA levels": 89}, {"substance": "416915 (antisense eT*eT*eT*dG*dA*dG*dA*dT*dT*d[5mC]*dT*dT*dT*dG*dG*dG*d[5mC]*e[5mC]*eA*eT) [compound 416915]", "% inhibition of human Factor XI mRNA levels": 79}, {"substance": "416988 (antisense eA*eG*dA*dT*dT*d[5mC]*dT*dT*dT*dG*dG*dG*d[5mC]*d[5mC]*dA*eT*eT*e[5mC]*e[5mC]*eT) [compound 416988]", "% inhibition of human Factor XI mRNA levels": 76}, {"substance": "416845 (antisense eT*e[5mC]*eT*eT*eT*dG*dA*dG*dA*dT*dT*d[5mC]*dT*dT*dT*eG*eG*eG*e[5mC]*e[5mC]) [compound 416845]", "% inhibition of human Factor XI mRNA levels": 86}]}, {"test_system": "human Factor XI mRNA", "experiment": "Antisense inhibition in HepG2 cells by microwalk gapmers, 75 nM, lipofectin (Example 3)", "type": "cell-based", "conditions": "HepG2 cells, 75 nM, oligonucleotides targeted to nucleobases 1275 to 1318 of SEQ ID NO: 1", "experimental": "as §1, §2", "units": {"% inhibition of human Factor XI mRNA levels": "%"}, "values": [{"substance": "416944 (antisense eA*e[5mC]*eT*dG*dG*d[5mC]*dA*dG*d[5mC]*dG*dG*dA*d[5mC]*dG*dG*d[5mC]*dA*eT*eT*eG) [compound 416944]", "% inhibition of human Factor XI mRNA levels": 83}, {"substance": "417016 (antisense e[5mC]*eA*dG*d[5mC]*dG*dG*dA*d[5mC]*dG*dG*d[5mC]*dA*dT*dT*dG*eG*eT*eG*e[5mC]*eA) [compound 417016]", "% inhibition of human Factor XI mRNA levels": 85}, {"substance": "417005 (antisense eA*eT*dT*dG*dG*dT*dG*d[5mC]*dA*d[5mC]*dA*dG*dT*dT*dT*e[5mC]*eT*eG*eG*e[5mC]) [compound 417005]", "% inhibition of human Factor XI mRNA levels": 79}]}]}
